Measurements taken from patent publication US7576222B2, “Alkynyl-containing tryptophan derivative inhibitors of TACE/matrix metalloproteinase” (priority 2004, dated 2009).
pIC50: −log10 of the molar value. Like-named read-outs stand apart in the source and are kept apart here.

Legend:
[1] = tested on: TNF-α Secretion in Human Whole Blood; test: Human whole blood assay for LPS-induced TNF-α secretion; type: cell-based; details: fresh human blood, LPS 100 ng/ml, TNF-α by ELISA
From the text: (§1) The basic measurement of the assay is the percentage of inhibition of TNF-α secretion and the IC50 determination by a fitting with the model-39 of LSW data analysis tool.

[2] = biological target: T1, recombinant human MMP-2 (Homo sapiens, UniProt P08253); test: In-vitro fluorescence (FRET) assay of MMP-2 activity; type: biochemical
T1 construct: purchased Oncogene Research Products (Calbiochem) PF023
From the text: (§2) A continuous assay was used in which the substrate is a synthetic peptide containing a fluorescent group (7-methoxycoumarin; Mca) that is quenched by energy transfer to a 2,4-dinitrophenyl group. See Knight, C. G. et al., FEBS Lett. (1992) 296: 263-266, incorporated herein by reference in its entirety. […] See Zhang, Y et al., Journal of Pharmacology and Experimental Therapeutics (JPET) (2004) 309:348-355, incorporated by reference in its entirety. The substrate used was Mca-PQGL-(3-[2,4-dinitrophenyl]-L-2,3-diaminopropionyl)-AR-OH (denoted as Wammp-5, custom synthesized by AnaSpec, Inc., San Jose, Calif.). The assay buffer consisted of 50 mM Hepes (pH 7.4), 100 mM NaCl, 5 mM CaCl2, and 0.005% Brij-35. Each well of black polystyrene 96-well plates contained a 200 μl reaction mixture consisting of assay buffer, purified MMP (final concentration of 25 ng/ml, prepared by diluting with the assay buffer), and varied concentrations of inhibitor (prepared by serially diluting a given inhibitor in DMSO in 96-well polypropylene plate). The plates were then incubated at 30° C. for 15 minutes. The enzymatic reactions were initiated by adding the substrate to a final concentration of 20 μM, and mixing 10 times with a pipette. The final DMSO concentration in the assay was 6.0%. The initial rate of the cleavage reaction was determined at 30° C. with a fluorescence plate reader (excitation filter of 330 nm and emission filter of 395 nm) immediately after substrate addition.
(§3) Plots of the inhibitor concentration versus the percent inhibition were fit to the following equation: y=(a−d)/[1+(x/c)^b]+d, a general sigmoidal curve with Hill slope, a to d. x is the inhibitor concentration under test. “y” is the percent inhibition. “a” is the limiting response as x approaches zero. As x increases without bound, y tends toward its limit d. “c” is the inflection point (IC50) for the curve. That is, y is halfway between the lower and upper asymptotes when x=c. “b” is the slope factor or Hill coefficient.
In-Vitro Fluorescence Assay of MMP-2 Activity

[3] = biological target: T2, catalytic domain of the recombinant TACE protein (Homo sapiens, UniProt P78536); test: TACE FRET assay using TACE cat; type: biochemical
T2 construct: The catalytic domain of the recombinant TACE protein was expressed and purified; made in house
Method in brief: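 Enzyme (1 ug/ml) pretreated with inhibitor for 10 min at room temperature in 50 mM Tris-HCl pH 7.4, 25 mM NaCl, 4% glycerol, 0.005% Brij 35, then started with FRET peptide Abz-[sequence]-Dpa (2 mM stock). Initial rate taken from fluorescence slope; IC50 fitted with floated Hill slope and background.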

[4] = biological target: T3, recombinant human catalytic domain of MMP-13 (Homo sapiens, UniProt P45452); test: biochemical
T3 construct: catalytic domain of MMP-13 (165 amino acids, residues 104-268, 19 kDa)
From the text: as §2, §3
In-Vitro Fluorescence Assay of MMP-13 Activity
See Zhang, Y et al., Journal of Pharmacology and Experimental Therapeutics (JPET) (2004) 309:348-355, incorporated by reference in its entirety.

[5] = biological target: T4, recombinant human catalytic domain of MMP-1 (Homo sapiens, UniProt P03956); test: In-vitro fluorescence (FRET) assay of MMP-1 activity; type: biochemical
T4 construct: the recombinant human catalytic domain of MMP-1
T4 sequence (P03956 100-269 limits assumed): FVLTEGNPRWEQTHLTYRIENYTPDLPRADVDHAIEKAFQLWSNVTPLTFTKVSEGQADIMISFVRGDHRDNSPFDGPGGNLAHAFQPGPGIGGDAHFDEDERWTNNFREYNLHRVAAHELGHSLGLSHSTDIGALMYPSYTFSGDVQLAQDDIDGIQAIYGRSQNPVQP
From the text: In-Vitro Fluorescence Assay of MMP-1 Activity
A continuous assay was used in which the substrate is a synthetic peptide containing a fluorescent group (7-methoxycoumarin; Mca) that is quenched by energy transfer to a 2,4-dinitrophenyl group. See Knight, C. G. et al., FEBS Lett. (1992) 296: 263-266, incorporated herein by reference in its entirety. When the peptide was cleaved by MMP, a large increase in fluorescence was observed. The source of enzyme in the assay was the recombinant human catalytic domain of MMP-1. See Zhang, Y et al., Journal of Pharmacology and Experimental Therapeutics (JPET) (2004) 309:348-355, incorporated by reference in its entirety. The substrate used was Mca-PQGL-(3-[2,4-dinitrophenyl]-L-2,3-diaminopropionyl)-AR-OH (denoted as Wammp-5, custom synthesized by AnaSpec, Inc., San Jose, Calif.). The assay buffer consisted of 50 mM Hepes (pH 7.4), 100 mM NaCl, 5 mM CaCl2, and 0.005% Brij-35. Each well of black polystyrene 96-well plates contained a 200 μl reaction mixture consisting of assay buffer, purified MMP (final concentration of 25 ng/ml, prepared by diluting with the assay buffer), and varied concentrations of inhibitor (prepared by serially diluting a given inhibitor in DMSO in 96-well polypropylene plate). The plates were then incubated at 30° C. for 15 minutes. The enzymatic reactions were initiated by adding the substrate to a final concentration of 20 μM, and mixing 10 times with a pipette. The final DMSO concentration in the assay was 6.0%. The initial rate of the cleavage reaction was determined at 30° C. with a fluorescence plate reader (excitation filter of 330 nm and emission filter of 395 nm) immediately after substrate addition.
as §3

[6] = biological target: T5, recombinant human catalytic domain of MMP-14 (Homo sapiens, UniProt P50281); test: biochemical
T5 construct: 177 amino acids corresponding to Tyr89-Gly265 of mature human enzyme; 20 kDa; purchased Chemicon International, Inc. CC1041
From the text: as §2, §3
In-Vitro Fluorescence Assay of MMP-14 Activity

[7] = tested on: TNF-α Secretion in Raw Cells (Raw 264.7 cells); test: Cell-based assay for inhibition of TNF-α secretion in Raw cells; details: read-out: TNF-α Secretion in Raw Cells IC50
Method: Cell-Based Assay for Inhibition of TNF-A Secretion in Raw Cells
as §1
Raw 264.7 cells (ATCC Cat No. TIB-71) are maintained in DMEM medium containing 10% of serum, P/S, and Glutamine. […] For testing compounds, cells are cultured to confluence and are seeded the day before the experiment in 24 well culture dishes at 0.5 to 1 million/ml/well. On the next morning, the medium from the overnight culture is replaced with the fresh growth medium. The compounds are added at various concentrations at the 0.2% of final DMSO concentrations (10 μl of a 20% DMSO solution containing testing compounds is added to each well). The cells are pre-incubated with compounds for 1 hour. LPS (Sigma, L2262) is added to cells at a final concentration of 100 ng/ml (10 μl of a […] LPS solution freshly diluted from a 1 mg/ml LPS stock solution in PBS is added to each well) and cells are further incubated for 4 hours at 37° C. One milliliter (1 ml) of the supernatant was collected, cells are spun down and the supernatants are frozen at −80° C. until use.
The TNF-α and other proinflammatory cytokines were detected by ELISA assay according to the manufacturer's instruction (Biosource International, Inc., Camarillo, Calif.) (For IL-1b measurement in Raw cells, one round of freeze and thaw of the cells was required.)

[8] = TACE FRET assay, catalytic domain of recombinant TACE, read-out: TACE IC50
[9] = Raw 264.7 cells, LPS 100 ng/ml, 4 hours, TNF-α by ELISA

T2 sequence (P78536 223-474 limits assumed): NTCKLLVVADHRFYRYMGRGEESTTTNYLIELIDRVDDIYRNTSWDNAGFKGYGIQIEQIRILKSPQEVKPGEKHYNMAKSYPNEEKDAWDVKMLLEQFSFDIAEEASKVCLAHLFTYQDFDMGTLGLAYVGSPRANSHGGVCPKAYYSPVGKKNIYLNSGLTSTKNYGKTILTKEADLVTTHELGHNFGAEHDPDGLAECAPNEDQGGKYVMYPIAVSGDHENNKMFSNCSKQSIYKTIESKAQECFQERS
T1 sequence (P08253 110-660): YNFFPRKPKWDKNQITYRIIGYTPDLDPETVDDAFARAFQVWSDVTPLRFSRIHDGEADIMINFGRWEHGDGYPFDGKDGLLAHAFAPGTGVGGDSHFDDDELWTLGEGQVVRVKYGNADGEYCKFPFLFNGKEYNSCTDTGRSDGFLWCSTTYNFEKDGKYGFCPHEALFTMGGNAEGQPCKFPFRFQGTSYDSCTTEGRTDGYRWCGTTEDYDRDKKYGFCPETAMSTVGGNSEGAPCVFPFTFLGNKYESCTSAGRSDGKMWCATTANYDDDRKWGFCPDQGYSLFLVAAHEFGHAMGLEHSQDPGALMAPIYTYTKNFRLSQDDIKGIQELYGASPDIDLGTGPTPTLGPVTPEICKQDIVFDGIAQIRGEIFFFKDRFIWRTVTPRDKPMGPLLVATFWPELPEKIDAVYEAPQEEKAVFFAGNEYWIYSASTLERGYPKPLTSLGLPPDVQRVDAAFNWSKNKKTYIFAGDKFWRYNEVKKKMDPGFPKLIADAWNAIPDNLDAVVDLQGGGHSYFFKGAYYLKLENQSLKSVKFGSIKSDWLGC

SMILES: CC#CCOc1ccc(S(=O)(=O)N[C@@H](Cc2c[nH]c3ccc(C)cc23)C(=O)O)cc1 [Example 218, N-{[4-(but-2-ynyloxy)phenyl]sulfonyl}-5-methyl-L(or D)-tryptophan]
- pIC50 [1]: < 4.30
- pIC50 [2]: 6.57
- pIC50 [3, 8]: 6.85
- pIC50 [4]: 5.74
- MMP-1 Inhibition ([5]; Conc. 160 μM): 30%
- pIC50 [6]: 5.17
- pIC50 [7, 9]: 5.15

SMILES: CC#CCOc1ccc(S(=O)(=O)N[C@H](Cc2cn(Cc3ccccc3-c3ccccc3)c3ccccc23)C(=O)O)cc1 [Example 27, 1-(1,1′-biphenyl-2-ylmethyl)-N-{[4-(but-2-ynyloxy)phenyl]sulfonyl}-D-tryptophan]
- pIC50 [3, 8]: 6.01
- pIC50 ([7]; Mus musculus, RAW264.7, 4 h): < 4.22

SMILES: CC#CCOc1ccc(S(=O)(=O)NC(Cc2c[nH]c3ccc(OC)cc23)C(=O)O)cc1 (racemic) [Example 4, N-{[4-(but-2-ynyloxy)phenyl]sulfonyl}-5-methoxytryptophan]
- pIC50 [2]: 5.11
- pIC50 [3]: 6.44
- inhibition at 15 µM ([4]; read-out: MMP-13 Inhibition): 50%
- inhibition at 1000 µM ([5]; read-out: MMP-1 Inhibition): 33%
- pIC50 [6]: 4.64

SMILES: CC#CCOc1ccc(S(=O)(=O)N[C@@H](Cc2c(C)n(Cc3ccc(F)cc3)c3ccc(OC)cc23)C(=O)O)cc1 [Example 199, N-{[4-(but-2-ynyloxy)phenyl]sulfonyl}-1-(4-fluorobenzyl)-5-methoxy-2-methyltryptophan]
- pIC50 [3]: 6.49
- pIC50 ([7]; Mus musculus, RAW264.7, 4 h): < 4.22

SMILES: CC#CCOc1ccc(S(=O)(=O)NC(Cc2cn(Cc3ccc(OC)cc3)c3ccc(C)cc23)C(=O)O)cc1 (centres unmarked) [Example 47, N-{[4-(but-2-ynyloxy)phenyl]sulfonyl}-1-(4-methoxybenzyl)-5-methyltryptophan]
- pIC50 [2]: 6.18
- inhibition at 67 µM ([5]; read-out: MMP-1 Inhibition): 30%
- pIC50 [6]: 4.94

SMILES: CC#CCOc1ccc(S(=O)(=O)N[C@@H](Cc2c[nH]c3ccc(OC)cc23)C(=O)O)cc1 [Example 221, N-{[4-(but-2-ynyloxy)phenyl]sulfonyl}-5-methoxy-D(or L)-tryptophan]
- pIC50 [2]: 5.90
- pIC50 [3, 8]: 6.85
- pIC50 [4]: 4.87
- MMP-1 Inhibition ([5]; Conc. 83 μM): 9%
- pIC50 [6]: 4.68
- pIC50 [7, 9]: 4.24

SMILES: CC#CCOc1ccc(S(=O)(=O)N[C@H](Cc2cn(CCCCOc3ccccc3)c3ccccc23)C(=O)O)cc1 [Example 24, N-{[4-(but-2-ynyloxy)phenyl]sulfonyl}-1-(4-phenoxybutyl)-D-tryptophan]
- pIC50 [3, 8]: 5.90
- pIC50 ([7]; Mus musculus, RAW264.7, 4 h): < 4.22

SMILES: CC#CCOc1ccc(S(=O)(=O)N[C@H](Cc2cn(Cc3ccc(F)cc3)c3ccccc23)C(=O)O)cc1 [Example 28, N-{[4-(but-2-ynyloxy)phenyl]sulfonyl}-1-(4-fluorobenzyl)-D-tryptophan]
- pIC50 [2]: 5.40
- pIC50 [3, 8]: 5.72
- pIC50 [4]: 4.77

SMILES: CC#CCOc1ccc(S(=O)(=O)NC(Cc2c[nH]c3ccc(C)cc23)C(=O)O)cc1 (racemic) [Example 6, N-{[4-(but-2-ynyloxy)phenyl]sulfonyl}-5-methyltryptophan]
- pIC50 [2]: 5.94
- pIC50 [3]: 6.55
- pIC50 [4]: 5.16

SMILES: CC#CCOc1ccc(S(=O)(=O)N[C@@H](Cc2c[nH]c3ccc(OCc4ccccc4)cc23)C(=O)O)cc1 [Example 224, 5-(benzyloxy)-N-{[4-(but-2-ynyloxy)phenyl]sulfonyl}-L(or D)-tryptophan]
- pIC50 [2]: 5.61
- pIC50 [4]: 5.35
- MMP-1 Inhibition ([5]; Conc. 83 μM): 19%
- pIC50 [6]: 4.71

SMILES: CC#CCOc1ccc(S(=O)(=O)N[C@H](Cc2cn(Cc3ccc(OC)cc3)c3ccccc23)C(=O)O)cc1 [Example 35, N-{[4-(but-2-ynyloxy)phenyl]sulfonyl}-1-(4-methoxybenzyl)-D-tryptophan]
- pIC50 [3, 8]: 7.10
- inhibition at 33 µM ([5]; read-out: MMP-1 Inhibition): 14%
- pIC50 [6]: 4.89
- pIC50 ([7]; Mus musculus, RAW264.7, 4 h): < 4.22

SMILES: CC#CCOc1ccc(S(=O)(=O)NC(Cc2c[nH]c3ccc(OCc4ccccc4)cc23)C(=O)O)cc1 (racemic) [Example 20, 5-(benzyloxy)-N-{[4-(but-2-ynyloxy)phenyl]sulfonyl}tryptophan]
- pIC50 [2]: 5.11
- pIC50 [3]: 6.12
- pIC50 [4]: 4.82
